pIC50: −log10 of the molar value. Like-named read-outs stand apart in the source and are kept apart here.
Biological target: T1, human MRGPR X4 (Homo sapiens, UniProt Q96LA9)
T1 construct: expressed in transfected cells
Assay: MRGPR X4 antagonist activity, IP-One Gq HTRF assay in stably transfected HEK cells
Type: cell-based
In short: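 IC50 comes from HTRF IP-1 accumulation in stably transfected HEK cells expressing human MRGPR X4. Compounds (10 uM top, 1:3 serial, 10 points) were co-incubated with 10 μM bilirubin, 20 μM deoxycholic acid or 100 μM conjugated bilirubin in LiCl-containing buffer, pH 8, for 1 h at 37 °C plus 30 min at room temperature.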

[1] = versus 20 μM deoxycholic acid agonist, HEK cells expressing human MRGPR X4, read-out: MRGPRX4 Antagonist Activity

T1 sequence (Q96LA9 whole entry): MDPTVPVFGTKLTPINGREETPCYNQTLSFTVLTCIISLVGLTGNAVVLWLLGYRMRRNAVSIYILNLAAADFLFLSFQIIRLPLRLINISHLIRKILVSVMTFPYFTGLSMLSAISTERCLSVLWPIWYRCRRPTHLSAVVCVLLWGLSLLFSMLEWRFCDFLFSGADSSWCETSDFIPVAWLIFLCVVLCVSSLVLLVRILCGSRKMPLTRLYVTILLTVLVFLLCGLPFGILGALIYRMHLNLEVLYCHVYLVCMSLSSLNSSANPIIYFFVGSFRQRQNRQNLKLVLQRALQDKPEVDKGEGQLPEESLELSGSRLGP

SMILES | pIC50 | pIC50 [1]
Cc1ccc(Cn2nc(C(=O)NCCc3nnc4n3CCCCC4)c3c(F)cccc32)cc1 [Compound 30] | 6.30 to 7.00 | –
O=C(NCCc1nnc2ccccn12)c1nn(CCOc2ccc(Cl)cc2)c2ccccc12 [Compound 485] | 6.00 to 6.30 | –
O=C(NCCC(=O)N1CCOCC1)c1nn(Cc2ccc(Cl)cc2)c2ccccc12 [Compound 401] | – | 6.00 to 6.30
O=C(NCCc1nnc2ccccn12)c1nn(Cc2ccc(C(F)(F)F)cc2)c2ccc(F)cc12 [Compound 531] | > 7.00 | –
Cn1cc(CNC(=O)c2nn(Cc3ccc(Cl)cc3)c3ccccc23)cn1 [Compound 353] | < 5.60 | –
Cc1nccn1-c1ccc(Cn2nc(C(=O)NCCc3nnc4ccccn34)c3ccccc32)cc1 [Compound 450] | – | < 5.60
Cc1ccc(Cn2nc(C(=O)NCCc3nnc4ccccn34)c3ccccc32)cc1 [Compound 528] | > 7.00 | –
CNC(=O)CS(=O)(=O)c1cn(Cc2ccc(Cl)cc2)c2ccccc12 [Compound 250] | – | 5.60 to 6.00
O=C(NCCc1nnc2ccccn12)c1nn(Cc2ccc(Cl)cc2)c2cccc(F)c12 [Compound 15] | > 7.00 | –
Cc1ccc(Cn2nc(C(=O)NCCc3cccnc3)c3cc(Cl)ccc32)cc1 [Compound 27] | > 7.00 | –
Cc1nc(CCNC(=O)c2nn(Cc3ccc(Cl)cc3)c3ccccc23)sc1C [Compound 34] | 6.30 to 7.00 | –
Cc1ccc(Cn2nc(C(=O)NCCc3ccn(C)n3)c3ccccc32)cc1 [Compound 76] | 6.00 to 6.30 | –
Cc1cccc(S(=O)(=O)NC(=O)c2nn(Cc3ccc(OC(F)(F)F)cc3)c3ccccc23)c1 [Compound 272] | – | 5.60 to 6.00
O=C(NCCc1nnc2ccccn12)c1nn(Cc2ccc(Cl)c(Cl)c2)c2ccc(F)cc12 [Compound 571] | > 7.00 | –
O=C(NS(=O)(=O)c1ccccc1F)c1nn(Cc2ccc(OC(F)F)cc2)c2ccccc12 [Compound 269] | – | 5.60 to 6.00
CC(C)(CNC(=O)c1cn(Cc2cccc(F)c2)c2ccccc12)c1cccnc1 [Compound 213] | 5.60 to 6.00 | –
COC(=O)c1ccc(S(=O)(=O)NC(=O)c2nn(Cc3ccc(OC(F)F)cc3)c3ccccc23)cc1 [Compound 277] | – | 5.60 to 6.00
Cc1ccccc1S(=O)(=O)NC(=O)c1nn(Cc2ccc(OC(F)F)cc2)c2ccccc12 [Compound 258] | 6.30 to 7.00 | –
Cc1ccc(Cn2nc(C(=O)NCCc3nnc4n3CCCCC4)c3cccc(F)c32)cc1 [Compound 116] | 5.60 to 6.00 | –
O=C(NCCc1cccc(Cl)c1)c1nn(Cc2ccc(Cl)cc2)c2ccccc12 [Compound 339] | 6.00 to 6.30 | –
O=C(NCCc1nnc2ccccn12)c1nn(Cc2cc(F)cc(C(F)(F)F)c2)c2ccccc12 [Compound 509] | 6.30 to 7.00 | –
Cc1ccc(Cn2nc(C(=O)NCCc3nc(C)c(C)s3)c3ccccc32)cc1 [Compound 53] | 6.30 to 7.00 | –
O=C(NCCc1ccc2c(c1)OCO2)c1nn(Cc2ccc(Cl)cc2)c2ccccc12 [Compound 342] | 6.00 to 6.30 | –
Cc1cc(Cl)ccc1Cn1nc(C(=O)NCCc2cccnc2)c2ccccc21 [Compound 37] | 6.30 to 7.00 | –
O=C(NCCc1nnc2ccccn12)c1nn(Cc2ccc(Cl)cc2)c2ccccc12 [Compound 10] | > 7.00 | –
Cc1cccnc1CCNC(=O)c1nn(Cc2ccc(Cl)cc2)c2ccccc12 [Compound 77] | 6.00 to 6.30 | –

SMILES | pIC50 | pIC50 [1]
Cc1cc(C)c(Cn2nc(C(=O)NCCc3nnc4ccccn34)c3ccccc32)c(C)c1 [Compound 479] | 6.30 to 7.00 | –
Cc1ccc(Cn2nc(C(=O)NCCc3ncon3)c3ccccc32)cc1 [Compound 126] | < 5.60 | –
O=C(NCCc1nnc2ccccn12)c1nn(Cc2ccc(Cl)cc2F)c2ccccc12 [Compound 527] | > 7.00 | –
N#Cc1ccc(Cn2cc(C(=O)NCCc3ccccn3)c3ccccc32)cc1 [Compound 184] | 6.00 to 6.30 | –
Cc1cccc(CCNC(=O)c2nn(Cc3ccc(Cl)cc3)c3ccccc23)c1 [Compound 362] | 5.60 to 6.00 | –
O=C(NCc1cn2cccnc2n1)c1nn(Cc2ccc(Cl)cc2)c2ccccc12 [Compound 368] | 6.30 to 7.00 | –
CC(C)c1cnnn1CCNC(=O)c1nn(Cc2ccc(Cl)cc2)c2ccccc12 [Compound 143, 1-(4-chlorobenzyl)-N-(2-(5-isopropyl-1H-1,2,3-triazol-1-yl)ethyl)-1H-indazole-3-carboxamide] | 6.30 to 7.00 | –
Cc1cc(S(=O)(=O)NC(=O)c2nn(Cc3ccc(OC(F)F)cc3)c3ccccc23)ccc1F [Compound 290] | – | 5.60 to 6.00
O=C(NCCc1ccc(C(F)(F)F)cc1)c1cn(Cc2ccc(Cl)cc2)c2ccccc12 [Compound 208] | 5.60 to 6.00 | –
O=C(CNC(=O)c1nn(Cc2ccc(Cl)cc2)c2ccccc12)NCC(F)(F)F [Compound 347] | < 5.60 | –
O=C(O)c1ccc(S(=O)(=O)NC(=O)c2nn(Cc3ccc(OC(F)F)cc3)c3ccccc23)cc1 [Compound 311, 4-(N-(1-(4-(difluoromethoxy)benzyl)-1H-indazole-3-carbonyl)sulfamoyl)benzoic acid] | – | 5.60 to 6.00
O=C(NCCc1ccccc1C(F)(F)F)c1cn(Cc2ccc(Cl)cc2)c2ccccc12 [Compound 190] | 6.00 to 6.30 | –
O=C(NS(=O)(=O)c1ccc(F)cc1)c1nn(Cc2ccc(OC(F)F)cc2)c2ccccc12 [Compound 266] | 6.00 to 6.30 | –
Cc1ccc(Cn2nc(C(=O)NCCc3cccnc3)c3c(F)cccc32)cc1 [Compound 70] | 6.00 to 6.30 | –
Cc1ccc(Cn2nc(C(=O)NCCc3cn4c(n3)SCC4)c3ccccc32)cc1 [Compound 41] | 6.30 to 7.00 | –
COc1ccc(CCNC(=O)c2cn(Cc3ccc(Cl)cc3)c3ccccc23)cn1 [Compound 168] | 6.30 to 7.00 | –
Cc1ccc2nc(CCNC(=O)c3nn(Cc4ccc(Cl)cc4)c4ccccc34)[nH]c2c1 [Compound 560] | 6.30 to 7.00 | –
O=C(NCc1ccc2ncccc2c1)c1nn(Cc2ccc(Cl)cc2)c2ccccc12 [Compound 372] | < 5.60 | –
Cc1ccc(Cn2cc(C(=O)NCc3ccncc3)c3ccccc32)cc1 [Compound 231] | < 5.60 | –
O=C(NCCc1nnc2ccccn12)c1nn(Cc2ccc3ccccc3c2)c2ccccc12 [Compound 432] | > 7.00 | –
CNCc1cn(CCNC(=O)c2nn(Cc3ccc(Cl)cc3)c3ccccc23)nn1 [Compound 142] | – | < 5.60
O=C(NCCc1cnccn1)c1cn(Cc2ccc(Cl)cc2)c2ccccc12 [Compound 171] | 6.30 to 7.00 | –
O=C(NCCc1cncc(F)c1)c1cn(Cc2ccc(Cl)cc2)c2ccccc12 [Compound 154] | > 7.00 | –
O=C(NCCCn1ccnc1)c1nn(Cc2ccc(Cl)cc2)c2ccccc12 [Compound 345] | < 5.60 | –
O=C(CS(=O)(=O)c1cn(Cc2ccc(Cl)cc2)c2ccccc12)Nc1cccc(F)c1 [Compound 240] | – | 6.30 to 7.00
Cc1cc(Cl)ccc1Cn1nc(C(=O)NCCc2nc3c(s2)CCCC3)c2ccccc21 [Compound 98] | 5.60 to 6.00 | –

SMILES | pIC50 | pIC50 [1]
O=C(CSc1cn(Cc2ccc(Br)cc2)c2ccccc12)N1CCCC1 [Compound 315, 2-(4(1H-indol-3-yl)thio)-1-(pyrrolidin-1-yl)ethan-1-one] | – | 5.60 to 6.00
O=C(CS(=O)(=O)c1cn(Cc2ccc(Cl)cc2)c2ccccc12)Nc1cccnc1 [Compound 239] | – | 6.30 to 7.00
Cc1cccc(CCNC(=O)c2nn(Cc3ccc(Cl)cc3)c3ccccc23)n1 [Compound 55] | 6.30 to 7.00 | –
Cc1ncsc1CCNC(=O)c1nn(Cc2ccc(Cl)cc2)c2ccccc12 [Compound 367] | 6.30 to 7.00 | –
COc1cccc(NC(=O)CS(=O)(=O)c2cn(Cc3ccc(Cl)cc3)c3ccccc23)c1 [Compound 238] | – | 6.30 to 7.00
O=C(NCCC1CCS(=O)(=O)CC1)c1nn(Cc2ccc(Cl)cc2)c2ccccc12 [Compound 385] | < 5.60 | –
O=C(NCCc1ccc(Cl)c(Cl)c1)c1cn(Cc2ccc(Cl)cc2)c2ccccc12 [Compound 344] | < 5.60 | –
O=C(NCCc1nnc2ccccn12)c1nn(CCc2ccc(C(F)(F)F)cc2)c2ccccc12 [Compound 441] | 5.60 to 6.00 | –
O=C(NCCc1ccc(Cl)c(F)c1)c1cn(Cc2cccc(F)c2)c2ccccc12 [Compound 210] | 5.60 to 6.00 | –
O=C(CS(=O)(=O)c1cn(Cc2ccc(Cl)cc2)c2ccccc12)Nc1ccccn1 [Compound 241] | – | 6.30 to 7.00
O=C(NCCc1nnc2ccccn12)c1nn(Cc2ccc(Cl)cc2)c2c(F)cccc12 [Compound 540] | > 7.00 | –
N#Cc1ccc(S(=O)(=O)NC(=O)c2nn(Cc3ccc(OC(F)F)cc3)c3ccccc23)cc1 [Compound 280] | – | 5.60 to 6.00
COc1cc(Cn2nc(C(=O)NCCc3cccnc3)c3ccccc32)ccc1Cl [Compound 43, 1-(4-chloro-3-methoxybenzyl)-N-(2-(pyridin-3-yl)ethyl)-1H-indazole-3-carboxamide] | 6.30 to 7.00 | –
O=C(CCc1cccnc1)Nc1nn(Cc2ccc(Cl)cc2)c2ccccc12 [Compound 148, N-(1-(4-chlorobenzyl)-1H-indazol-3-yl)-3-(pyridin-3-yl)-propanamide] | – | 5.60 to 6.00
CC(C)c1ccc(Cn2nc(C(=O)O)c3ccccc32)cc1 [Compound 323] | 5.60 to 6.00 | –
O=C(NS(=O)(=O)c1ccc(C(F)(F)F)cc1)c1nn(Cc2ccc(OC(F)F)cc2)c2ccccc12 [Compound 276] | – | 5.60 to 6.00
COc1ccc2c(C(=O)NCCc3nnc4ccccn34)nn(Cc3ccc(Cl)cc3)c2c1 [Compound 563] | > 7.00 | –
O=C(NCCc1nnc2ccccn12)c1nn(Cc2ncc3cc(Cl)ccc3n2)c2ccccc12 [Compound 436] | 6.30 to 7.00 | –
O=C(NS(=O)(=O)c1ccc(Cl)cc1Cl)c1nn(Cc2ccc(Cl)cc2)c2ccccc12 [Compound 308] | – | < 5.60
O=C(O)c1nn(Cc2ccc(Cl)cc2)c2ccccc12 [Compound 319] | 5.60 to 6.00 | –
Cc1cccc(CCNC(=O)c2cn(Cc3ccc(Cl)cc3)c3ccccc23)n1 [Compound 153] | > 7.00 | –
COc1ccc(CCNC(=O)c2cn(Cc3cccc(F)c3)c3ccccc23)cn1 [Compound 216] | 5.60 to 6.00 | –
Cc1ccc(Cn2nc(C(=O)NCCc3nnc(C4CCOCC4)[nH]3)c3ccccc32)cc1 [Compound 109] | – | 5.60 to 6.00
O=C(NCc1ccc(-n2ccnc2)cc1)c1nn(Cc2ccc(Cl)cc2)c2ccccc12 [Compound 426] | 5.60 to 6.00 | –

— patent US20240254089A1, “MODULATORS OF MAS-RELATED G-PROTEIN RECEPTOR X4 AND RELATED PRODUCTS AND METHODS” (ESCIENT PHARMACEUTICALS, INC., priority 2020, published 2024)
